The source made the active and inactive calls. The calls are words filed in the database; no cut-off is given here. Peptide text beside a SMILES is read from it. * marks the point of attachment. GlcNAc(β1-2)αMan = CC(=O)N[C@H]1[C@H](O[C@H]2[C@@H](O)[C@H](O)[C@@H](CO)O[C@@H]2*)O[C@H](CO)[C@@H](O)[C@@H]1O; Hexanoyl(5-oxo) = CC(=O)CCCC(=O)*
What was measured:
Arachis hypogaea = experiment: Binding affinity to biotin-labeled Arachis hypogaea agglutinin in pH 7.4 Tris buffer by fluorescence microarray method
Canavalia ensiformis = experiment: Binding affinity to biotin-labeled Canavalia ensiformis agglutinin in pH 7.4 Tris buffer by fluorescence microarray method
[1] = molecular target: Laminin subunit alpha-1 (Homo sapiens) (UniProt P25391); experiment: Binding affinity to biotin-labeled human recombinant laminin-1 at 10 ug/ml in pH 7.4 Tris buffer by fluorescence microarray method
Laminin subunit alpha-1 (Homo sapiens), sequence (P25391 whole entry): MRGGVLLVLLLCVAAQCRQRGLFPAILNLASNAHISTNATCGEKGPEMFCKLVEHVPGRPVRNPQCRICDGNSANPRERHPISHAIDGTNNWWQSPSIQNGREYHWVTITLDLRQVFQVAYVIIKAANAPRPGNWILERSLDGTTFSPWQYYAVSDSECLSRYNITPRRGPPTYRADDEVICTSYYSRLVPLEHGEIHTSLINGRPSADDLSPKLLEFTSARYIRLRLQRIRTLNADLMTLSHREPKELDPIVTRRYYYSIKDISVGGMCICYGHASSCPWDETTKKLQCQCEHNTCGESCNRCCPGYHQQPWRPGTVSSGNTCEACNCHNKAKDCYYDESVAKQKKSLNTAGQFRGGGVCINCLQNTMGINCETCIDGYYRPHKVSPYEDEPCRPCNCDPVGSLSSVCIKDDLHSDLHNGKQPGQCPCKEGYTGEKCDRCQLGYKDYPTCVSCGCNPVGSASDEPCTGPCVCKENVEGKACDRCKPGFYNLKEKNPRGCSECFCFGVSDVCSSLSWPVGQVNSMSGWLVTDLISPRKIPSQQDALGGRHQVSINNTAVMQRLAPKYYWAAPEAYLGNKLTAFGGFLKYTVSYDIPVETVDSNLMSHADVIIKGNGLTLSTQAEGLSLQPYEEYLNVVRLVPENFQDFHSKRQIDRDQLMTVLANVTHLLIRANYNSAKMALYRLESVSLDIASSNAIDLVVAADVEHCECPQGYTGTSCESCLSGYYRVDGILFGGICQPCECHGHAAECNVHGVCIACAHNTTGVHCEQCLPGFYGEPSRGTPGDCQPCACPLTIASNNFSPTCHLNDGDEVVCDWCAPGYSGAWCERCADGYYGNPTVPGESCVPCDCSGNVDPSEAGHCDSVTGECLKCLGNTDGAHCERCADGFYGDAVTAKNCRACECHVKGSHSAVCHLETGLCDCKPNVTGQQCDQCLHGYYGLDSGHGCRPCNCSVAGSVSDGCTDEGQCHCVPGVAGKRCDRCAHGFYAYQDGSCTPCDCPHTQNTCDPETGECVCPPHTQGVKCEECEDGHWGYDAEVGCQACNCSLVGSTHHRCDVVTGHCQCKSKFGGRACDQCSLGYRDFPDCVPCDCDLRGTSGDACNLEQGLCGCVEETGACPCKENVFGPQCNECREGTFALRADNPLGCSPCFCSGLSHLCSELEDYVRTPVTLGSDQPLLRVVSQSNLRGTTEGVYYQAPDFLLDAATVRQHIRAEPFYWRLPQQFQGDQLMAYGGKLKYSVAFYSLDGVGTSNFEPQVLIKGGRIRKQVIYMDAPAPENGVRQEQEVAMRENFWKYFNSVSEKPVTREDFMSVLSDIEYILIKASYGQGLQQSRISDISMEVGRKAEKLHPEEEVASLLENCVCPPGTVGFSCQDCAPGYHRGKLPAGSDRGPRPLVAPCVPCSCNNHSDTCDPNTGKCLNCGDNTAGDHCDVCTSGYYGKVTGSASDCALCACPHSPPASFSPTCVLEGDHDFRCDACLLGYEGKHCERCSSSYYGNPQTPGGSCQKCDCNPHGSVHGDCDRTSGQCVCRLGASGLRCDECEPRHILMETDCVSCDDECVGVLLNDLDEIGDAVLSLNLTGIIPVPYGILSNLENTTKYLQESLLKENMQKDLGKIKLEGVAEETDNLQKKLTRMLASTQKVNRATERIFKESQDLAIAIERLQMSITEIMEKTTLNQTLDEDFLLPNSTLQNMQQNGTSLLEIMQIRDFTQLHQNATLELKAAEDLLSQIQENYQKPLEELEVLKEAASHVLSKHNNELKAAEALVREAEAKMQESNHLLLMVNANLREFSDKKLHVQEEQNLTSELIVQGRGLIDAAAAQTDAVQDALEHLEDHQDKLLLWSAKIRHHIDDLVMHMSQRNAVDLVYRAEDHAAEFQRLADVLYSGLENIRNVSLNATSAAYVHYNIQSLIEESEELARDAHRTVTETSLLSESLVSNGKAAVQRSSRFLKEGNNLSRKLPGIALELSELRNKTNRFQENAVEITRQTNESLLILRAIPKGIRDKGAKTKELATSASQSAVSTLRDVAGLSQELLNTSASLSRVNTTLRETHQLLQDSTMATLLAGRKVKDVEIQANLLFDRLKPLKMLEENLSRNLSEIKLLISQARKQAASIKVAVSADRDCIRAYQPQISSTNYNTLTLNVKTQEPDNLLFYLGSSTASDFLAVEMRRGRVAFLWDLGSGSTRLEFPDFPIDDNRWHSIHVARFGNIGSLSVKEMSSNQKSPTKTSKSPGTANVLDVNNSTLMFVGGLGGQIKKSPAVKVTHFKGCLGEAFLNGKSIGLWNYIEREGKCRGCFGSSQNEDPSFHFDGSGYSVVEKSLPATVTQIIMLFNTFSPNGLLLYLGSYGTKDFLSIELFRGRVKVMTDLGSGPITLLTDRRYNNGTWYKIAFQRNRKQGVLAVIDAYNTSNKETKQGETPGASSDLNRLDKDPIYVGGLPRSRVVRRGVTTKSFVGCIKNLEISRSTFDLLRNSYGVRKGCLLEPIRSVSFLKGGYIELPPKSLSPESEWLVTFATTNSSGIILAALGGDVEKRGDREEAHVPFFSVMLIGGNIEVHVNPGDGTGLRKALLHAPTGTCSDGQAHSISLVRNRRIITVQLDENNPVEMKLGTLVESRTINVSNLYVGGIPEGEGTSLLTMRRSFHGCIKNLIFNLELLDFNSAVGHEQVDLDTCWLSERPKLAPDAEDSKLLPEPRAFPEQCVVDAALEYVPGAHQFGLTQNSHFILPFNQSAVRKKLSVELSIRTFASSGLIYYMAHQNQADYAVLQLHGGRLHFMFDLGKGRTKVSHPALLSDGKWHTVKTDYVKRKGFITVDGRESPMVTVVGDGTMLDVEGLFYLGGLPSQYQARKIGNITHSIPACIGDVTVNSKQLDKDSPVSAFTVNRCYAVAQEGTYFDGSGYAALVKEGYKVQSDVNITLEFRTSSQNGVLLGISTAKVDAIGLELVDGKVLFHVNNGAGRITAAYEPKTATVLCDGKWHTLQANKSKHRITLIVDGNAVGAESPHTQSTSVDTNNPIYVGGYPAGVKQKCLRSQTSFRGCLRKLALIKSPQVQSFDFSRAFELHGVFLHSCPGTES

Homo sapiens [2] = species on record: Homo sapiens; experiment: Binding affinity to biotin-labeled human recombinant laminin-2 at 10 ug/ml in 5.6 MES buffer by fluorescence microarray method
Maackia amurensis = experiment: Binding affinity to biotin-labeled Maackia amurensis agglutinin in pH 7.4 Tris buffer by fluorescence microarray method
[3] = molecular target: Laminin subunit alpha-1 (Homo sapiens) (UniProt P25391); experiment: Binding affinity to biotin-labeled human recombinant laminin-1 at 10 ug/ml in pH 5.6 MES buffer by fluorescence microarray method
[4] = molecular target: Lactotransferrin (Homo sapiens) (UniProt P02788); experiment: Binding affinity to biotin-labeled lactoferrin (unknown origin) at 10 ug/ml in pH 5.6 MES buffer by fluorescence microarray method
Lactotransferrin (Homo sapiens), sequence (P02788 whole entry): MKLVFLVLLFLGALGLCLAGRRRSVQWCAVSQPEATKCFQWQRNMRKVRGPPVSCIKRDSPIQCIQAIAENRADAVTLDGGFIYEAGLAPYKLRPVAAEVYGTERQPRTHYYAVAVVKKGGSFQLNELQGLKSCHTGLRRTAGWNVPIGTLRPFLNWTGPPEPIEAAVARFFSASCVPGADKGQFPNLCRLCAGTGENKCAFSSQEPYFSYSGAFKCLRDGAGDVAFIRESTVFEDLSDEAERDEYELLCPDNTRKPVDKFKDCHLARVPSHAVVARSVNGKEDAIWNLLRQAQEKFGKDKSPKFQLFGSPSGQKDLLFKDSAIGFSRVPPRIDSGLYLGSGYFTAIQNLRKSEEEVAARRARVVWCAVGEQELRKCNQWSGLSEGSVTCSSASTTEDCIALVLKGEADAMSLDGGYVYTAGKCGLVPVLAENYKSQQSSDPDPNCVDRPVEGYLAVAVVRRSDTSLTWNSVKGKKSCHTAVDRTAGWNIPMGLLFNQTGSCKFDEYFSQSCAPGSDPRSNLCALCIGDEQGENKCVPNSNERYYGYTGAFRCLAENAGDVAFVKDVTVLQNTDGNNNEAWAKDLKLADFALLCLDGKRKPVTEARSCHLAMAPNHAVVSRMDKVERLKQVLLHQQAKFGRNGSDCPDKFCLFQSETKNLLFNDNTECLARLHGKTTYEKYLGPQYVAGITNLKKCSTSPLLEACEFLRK

Datura stramonium = experiment: Binding affinity to biotin-labeled Datura stramonium agglutinin in pH 7.4 Tris buffer by fluorescence microarray method
[5] = molecular target: Lactotransferrin (Homo sapiens) (UniProt P02788); experiment: Binding affinity to biotin-labeled lactoferrin (unknown origin) at 10 ug/ml in pH 7.4 Tris buffer by fluorescence microarray method
[6] = system: Sambucus racemosa subsp. sieboldiana; experiment: Binding affinity to biotin-labeled Sambucus sieboldiana agglutinin in pH 7.4 Tris buffer by fluorescence microarray method
Triticum aestivum = experiment: Binding affinity to biotin-labeled Wheat germ agglutinin in pH 7.4 Tris buffer by fluorescence microarray method
Homo sapiens [7] = species on record: Homo sapiens; experiment: Binding affinity to biotin-labeled human recombinant laminin-2 at 10 ug/ml in pH 7.4 Tris buffer by fluorescence microarray method
[8] = Binding affinity to biotin-labeled Agaricus bisporus agglutinin in pH 7.4 Tris buffer by fluorescence microarray method
Erythrina crista-galli = experiment: Binding affinity to biotin-labeled Erythrina crista-galli agglutinin in pH 7.4 Tris buffer by fluorescence microarray method

Structure (SMILES)	Activity (Arachis hypogaea)	Activity (Canavalia ensiformis)	Activity [1]	Activity (Homo sapiens [2])	Activity (Maackia amurensis)	Activity [3]	Activity [4]	Activity (Datura stramonium)	Activity [5]	Activity [6]	Activity (Triticum aestivum)	Activity (Homo sapiens [7])	Activity [8]	Activity (Erythrina crista-galli)
CC[C@H](C)[C@H](NC(=O)[C@H](C)NC(=O)CNC(=O)[C@H](CCCNC(=N)N)NC(=O)[C@@H](NC(=O)CCCC(C)=O)[C@@H](C)O)C(=O)N[C@H](C(=O)N[C@@H](CCC(N)=O)C(=O)N[C@H](C(=O)N1CCC[C@H]1C(=O)N[C@H](C(=O)N[C@@H](CC(C)C)C(=O)NCC(=O)N1CCC[C@H]1C(=O)N[C@H](C(=O)N[C@@H](CCC(N)=O)C(=O)N1CCC[C@H]1C(=O)N[C@H](C(=O)N[C@@H](CCCNC(=N)N)C(=O)N[C@H](C(N)=O)C(C)C)[C@@H](C)O[C@H]1O[C@H](CO)[C@@H](O)[C@H](O)[C@@H]1O[C@@H]1O[C@H](CO)[C@@H](O[C@@H]2O[C@H](CO)[C@H](O)[C@H](O[C@]3(C(=O)O)C[C@H](O)[C@@H](NC(C)=O)[C@H]([C@H](O)[C@H](O)CO)O3)[C@H]2O)[C@H](O)[C@H]1NC(C)=O)[C@@H](C)CC)[C@@H](C)O[C@H]1O[C@H](CO)[C@@H](O)[C@H](O)[C@@H]1O[C@@H]1O[C@H](CO)[C@@H](O[C@@H]2O[C@H](CO)[C@H](O)[C@H](O[C@]3(C(=O)O)C[C@H](O)[C@@H](NC(C)=O)[C@H]([C@H](O)[C@H](O)CO)O3)[C@H]2O)[C@H](O)[C@H]1NC(C)=O)[C@@H](C)O[C@H]1O[C@H](CO)[C@@H](O)[C@H](O)[C@@H]1O[C@@H]1O[C@H](CO)[C@@H](O[C@@H]2O[C@H](CO)[C@H](O)[C@H](O[C@]3(C(=O)O)C[C@H](O)[C@@H](NC(C)=O)[C@H]([C@H](O)[C@H](O)CO)O3)[C@H]2O)[C@H](O)[C@H]1NC(C)=O)[C@@H](C)CC	Active	Active	Active	Active	inactive	Active	Active	inactive	inactive	Active	Active	inactive	Active	Active
CC[C@H](C)[C@H](NC(=O)[C@H](C)NC(=O)CNC(=O)[C@H](CCCNC(=N)N)NC(=O)[C@@H](NC(=O)CCCC(C)=O)[C@@H](C)O)C(=O)N[C@H](C(=O)N[C@@H](CCC(N)=O)C(=O)N[C@H](C(=O)N1CCC[C@H]1C(=O)N[C@H](C(=O)N[C@@H](CC(C)C)C(=O)NCC(=O)N1CCC[C@H]1C(=O)N[C@H](C(=O)N[C@@H](CCC(N)=O)C(=O)N1CCC[C@H]1C(=O)N[C@H](C(=O)N[C@@H](CCCNC(=N)N)C(=O)N[C@H](C(N)=O)C(C)C)[C@@H](C)O[C@H]1O[C@H](CO)[C@@H](O)[C@H](O)[C@@H]1O[C@@H]1O[C@H](CO)[C@@H](O)[C@H](O)[C@H]1NC(C)=O)[C@@H](C)CC)[C@@H](C)O[C@H]1O[C@H](CO)[C@@H](O)[C@H](O)[C@@H]1O[C@@H]1O[C@H](CO)[C@@H](O)[C@H](O)[C@H]1NC(C)=O)[C@@H](C)O[C@H]1O[C@H](CO)[C@@H](O)[C@H](O)[C@@H]1O[C@@H]1O[C@H](CO)[C@@H](O)[C@H](O)[C@H]1NC(C)=O)[C@@H](C)CC ({Hexanoyl(5-oxo)}-TRGAIIQT(GlcNAc(β1-2)αMan)PT(GlcNAc(β1-2)αMan)LGPIQPT(GlcNAc(β1-2)αMan)RV-NH2)	Active	Active	Active	Active	inactive	Active	Active	inactive	inactive	Active	Active	inactive	Active	Active

Further lines, results first:

Activity (Arachis hypogaea)	Activity (Canavalia ensiformis)	Activity [1]	Activity (Homo sapiens [2])	Activity (Maackia amurensis)	Activity [3]	Activity [4]	Activity (Datura stramonium)	Activity [5]	Activity [6]	Activity (Triticum aestivum)	Activity (Homo sapiens [7])	Activity [8]	Activity (Erythrina crista-galli)	Structure (SMILES)
Active	Active	Active	Active	inactive	Active	Active	inactive	inactive	Active	Active	inactive	Active	Active	CC[C@H](C)[C@H](NC(=O)[C@H](C)NC(=O)CNC(=O)[C@H](CCCNC(=N)N)NC(=O)[C@@H](NC(=O)CCCC(C)=O)[C@@H](C)O)C(=O)N[C@H](C(=O)N[C@@H](CCC(N)=O)C(=O)N[C@H](C(=O)N1CCC[C@H]1C(=O)N[C@H](C(=O)N[C@@H](CC(C)C)C(=O)NCC(=O)N1CCC[C@H]1C(=O)N[C@H](C(=O)N[C@@H](CCC(N)=O)C(=O)N1CCC[C@H]1C(=O)N[C@H](C(=O)N[C@@H](CCCNC(=N)N)C(=O)N[C@H](C(N)=O)C(C)C)[C@@H](C)O)[C@@H](C)CC)[C@@H](C)O[C@H]1O[C@H](CO)[C@@H](O)[C@H](O)[C@@H]1O[C@@H]1O[C@H](CO)[C@@H](O)[C@H](O)[C@H]1NC(C)=O)[C@@H](C)O[C@H]1O[C@H](CO)[C@@H](O)[C@H](O)[C@@H]1O[C@@H]1O[C@H](CO)[C@@H](O)[C@H](O)[C@H]1NC(C)=O)[C@@H](C)CC ({Hexanoyl(5-oxo)}-TRGAIIQT(GlcNAc(β1-2)αMan)PT(GlcNAc(β1-2)αMan)LGPIQPTRV-NH2)
Active	Active	Active	Active	inactive	Active	Active	inactive	inactive	Active	Active	inactive	Active	Active	CC[C@H](C)[C@H](NC(=O)[C@H](C)NC(=O)CNC(=O)[C@H](CCCNC(=N)N)NC(=O)[C@@H](NC(=O)CCCC(C)=O)[C@@H](C)O)C(=O)N[C@H](C(=O)N[C@@H](CCC(N)=O)C(=O)N[C@H](C(=O)N1CCC[C@H]1C(=O)N[C@H](C(=O)N[C@@H](CC(C)C)C(=O)NCC(=O)N1CCC[C@H]1C(=O)N[C@H](C(=O)N[C@@H](CCC(N)=O)C(=O)N1CCC[C@H]1C(=O)N[C@H](C(=O)N[C@@H](CCCNC(=N)N)C(=O)N[C@H](C(N)=O)C(C)C)[C@@H](C)O[C@H]1O[C@H](CO)[C@@H](O)[C@H](O)[C@@H]1O[C@@H]1O[C@H](CO)[C@@H](O)[C@H](O)[C@H]1NC(C)=O)[C@@H](C)CC)[C@@H](C)O)[C@@H](C)O[C@H]1O[C@H](CO)[C@@H](O)[C@H](O)[C@@H]1O[C@@H]1O[C@H](CO)[C@@H](O)[C@H](O)[C@H]1NC(C)=O)[C@@H](C)CC ({Hexanoyl(5-oxo)}-TRGAIIQT(GlcNAc(β1-2)αMan)PTLGPIQPT(GlcNAc(β1-2)αMan)RV-NH2)
Active	Active	Active	Active	inactive	Active	Active	inactive	inactive	Active	Active	inactive	Active	Active	CC[C@H](C)[C@H](NC(=O)[C@H](C)NC(=O)CNC(=O)[C@H](CCCNC(=N)N)NC(=O)[C@@H](NC(=O)CCCC(C)=O)[C@@H](C)O)C(=O)N[C@H](C(=O)N[C@@H](CCC(N)=O)C(=O)N[C@H](C(=O)N1CCC[C@H]1C(=O)N[C@H](C(=O)N[C@@H](CC(C)C)C(=O)NCC(=O)N1CCC[C@H]1C(=O)N[C@H](C(=O)N[C@@H](CCC(N)=O)C(=O)N1CCC[C@H]1C(=O)N[C@H](C(=O)N[C@@H](CCCNC(=N)N)C(=O)N[C@H](C(N)=O)C(C)C)[C@@H](C)O)[C@@H](C)CC)[C@@H](C)O)[C@@H](C)O[C@H]1O[C@H](CO)[C@@H](O)[C@H](O)[C@@H]1O[C@@H]1O[C@H](CO)[C@@H](O)[C@H](O)[C@H]1NC(C)=O)[C@@H](C)CC ({Hexanoyl(5-oxo)}-TRGAIIQT(GlcNAc(β1-2)αMan)PTLGPIQPTRV-NH2)

— ChEMBL document CHEMBL4387728, “Synthetic glycopeptides reveal specific binding pattern and conformational change at O-mannosylated position of α-dystroglycan by POMGnT1 catalyzed GlcNAc modification” (Bioorg Med Chem, 2019)
